Source: article PMC8838787, “The Antiproliferative and Apoptotic Effects of a Novel Quinazoline Carrying Substituted-Sulfonamides: In Vitro and Molecular Docking Study” (Molecules, 2022)

Assays:
A549 (lung) cancer cells = assay: MTT cell viability assay, A549; format: cell-based; conditions: Homo sapiens, A549, 48 h, average ± SD (n = 3)
Procedure: (§1) Compounds 4a–n were subjected to the cytotoxicity screening of the cell lines MCF-7 (breast), LoVo (colon), HepG2 (liver) and A549 (lung) carcinoma cells as well as HUVEC normal cell lines. The MTT assay was employed to assess cytotoxicity after 48 h of treatment with different concentrations of each compound and doxorubicin was used as a reference drug. The results were presented in Table 1 as growth inhibitory concentration (IC50 values).
(§2) Cell viability was determined using 3-(4,5-dimethylthiazol-2-yl)-2,5-diphenyl tetrazolium bromide (MTT) assay as stated previously. In brief, A549 (lung), HepG2 (liver), LoVo (colon), MCF-7 (breast) cancer cells as well as normal cells (HUVEC) were seeded in 96-well plates (10^5 per well) and compounds were added in a different final concentration. All cells were treated for 48 h, and then 10μL of MTT reagent (5 mg/mL) was added to each well and further incubated for 4 h. Thereafter, 0.1 mL of acidified isopropanol was added to solubilize formazan product and the developed color was measured at 570 nm in Microplate ELISA Reader (BioTek, Elx-800, Winooski, VT, USA). The IC50 values (concentration required for 50% inhibition of cell viability) were calculated using dose response curve. Cell viability was calculated as = (Ab Treated/Ab Control) × 100.
(§3) The A549, HepG2, LoVo and MCF-7 cancer cell lines were obtained from the German Collection of Microorganisms and Cell Cultures (DSMZ) (Braunschweig, Germany). For Human umbilical vein endothelial cells (HUVEC cells), it was purchased from American Type Culture Collection (16549; Cat no. PCS-100-010; ATTCC, Manassas, VA, USA).

[1] = tested on: MCF-7 (breast) cancer cells; assay: MTT cell viability assay, MCF-7; format: cell-based, human; conditions: for IC50: Homo sapiens, MCF7, 48 h, average ± SD (n = 3); for cytotoxic activity (in words, SAR discussion): 48 h
Procedure: as §1, §2, §3

[2] = tested on: LoVo (colon) cancer cells; assay: MTT cell viability assay, LoVo; format: cell-based; conditions: Homo sapiens, 48 h, average ± SD (n = 3)
Procedure: as §1, §2, §3

[3] = tested on: HepG2 (liver) cancer cells; assay: MTT cell viability assay, HepG2; format: cell-based; conditions: Homo sapiens, 48 h, average ± SD (n = 3)
Procedure: as §1, §2, §3

HUVEC normal cells = assay: MTT cell viability assay, normal HUVEC; format: cell-based; conditions: Homo sapiens, 48 h, average ± SD (n = 3)
Procedure: as §1, §2, §3

Row | Structure (SMILES) | IC50 (A549 (lung) cancer cells) | melting point | IC50 [1] | IC50 [2] | IC50 [3] | IC50 (HUVEC normal cells) | cytotoxic activity (in words, SAR discussion) [1]
1 | COc1cccc2c(=O)n(-c3ccc(S(=O)(=O)NCC(=O)Nc4ccccc4)cc3)c(SCC(=O)Nc3ccccc3)nc12 [Compound 4a] | 19.6 ± 1.7 µM | 165 to 167 °C | 14.2 ± 0.4 µM | 37.5 ± 1.8 µM | 35 ± 1.2 µM | 20.9 ± 1 µM | –
2 | COc1cccc2c(=O)n(-c3ccc(S(=O)(=O)NCC(=O)Nc4ccccc4C)cc3)c(SCC(=O)Nc3ccccc3C)nc12 [Compound 4b] | 11.4 ± 1.6 µM | 102 to 104 °C | 36.2 ± 2 µM | 35.8 ± 1 µM | 33.7 ± 0.8 µM | 32.7 ± 1.2 µM | –
3 | COc1cccc2c(=O)n(-c3ccc(S(=O)(=O)NCC(=O)Nc4cccc(C)c4)cc3)c(SCC(=O)Nc3cccc(C)c3)nc12 [Compound 4c] | > 40 µM | 112 to 114 °C | > 40 µM | > 40 µM | > 40 µM | > 40 µM | abolishes the cytotoxicity
4 | CCc1ccccc1NC(=O)CNS(=O)(=O)c1ccc(-n2c(SCC(=O)Nc3ccccc3CC)nc3c(OC)cccc3c2=O)cc1 [Compound 4e, N-(2-ethylphenyl)-2-((3-(4-(N-(2-((2-ethylphenyl)amino)-2-oxoethyl)sulfamoyl)-phe-nyl)-8-methoxy-4-oxo-3,4-dihydroquinazolin-2yl)thio)acetamide] | > 40 µM | 246 to 248 °C | > 40 µM | > 40 µM | > 40 µM | > 40 µM | no antiproliferative
5 | CCc1ccc(NC(=O)CNS(=O)(=O)c2ccc(-n3c(SCC(=O)Nc4ccc(CC)cc4)nc4c(OC)cccc4c3=O)cc2)cc1 [Compound 4g, N-(4-ethylphenyl)-2-((3-(4-(N-(2-((4-ethylphenyl)amino)-2-oxoethyl)sulfamoyl)-phenyl)-8-methoxy-4-oxo-3,4-dihydroquinazolin-2yl)thio)acetamide] | > 40 µM | 219 to 221 °C | > 40 µM | > 40 µM | > 40 µM | > 40 µM | no antiproliferative
6 | COc1ccc(NC(=O)CNS(=O)(=O)c2ccc(-n3c(SCC(=O)Nc4ccc(OC)cc4)nc4c(OC)cccc4c3=O)cc2)cc1 [Compound 4h, 2-(4-(8-Methoxy-2-((2-((4-methoxyphenyl)amino)-2-oxoethyl)thio)-4-oxoquinazolin-3(4H)-yl)phenylsulfonamido)-N-(4-methoxy-phenyl)acetamide] | 13.3 ± 0.85 µM | 117 to 119 °C | 31.6 ± 1.3 µM | 31.7 ± 1 µM | 25.4 ± 0.95 µM | – | –
7 | CCOc1ccc(NC(=O)CNS(=O)(=O)c2ccc(-n3c(SCC(=O)Nc4ccc(OCC)cc4)nc4c(OC)cccc4c3=O)cc2)cc1 [Compound 4i, N-(4-Ethoxyphenyl)-2-((3-(4-N-(2((4-ethoxyphenyl)amino)-2-oxoethyl)sulfamoyl)-phenyl-8-methoxy-4-oxo-3,4-dihydroquinazolin-2-yl)thio)acetamide] | 13.8 ± 0.5 µM | > 350 °C | 26.4 ± 0.79 µM | 22 ± 1.01 µM | 20.6 ± 1.6 µM | 18.2 ± 2.2 µM | –
8 | COc1cc(NC(=O)CNS(=O)(=O)c2ccc(-n3c(SCC(=O)Nc4cc(OC)cc(OC)c4)nc4c(OC)cccc4c3=O)cc2)cc(OC)c1 [Compound 4j, N-(3,5-Dimethoxyphenyl)-2-((3-(4-N-(2((3,5-dimethoxyphenyl)amino)-2-oxoethyl)-sulfa-moyl)phenyl-8-methoxy-4-oxo-3,4-dihydroquinazolin-2-yl)thio)acetamide] | > 40 µM | 239 to 241 °C | > 40 µM | > 40 µM | > 40 µM | > 40 µM | –
9 | COc1cc(NC(=O)CNS(=O)(=O)c2ccc(-n3c(SCC(=O)Nc4cc(OC)c(OC)c(OC)c4)nc4c(OC)cccc4c3=O)cc2)cc(OC)c1OC [Compound 4k] | > 40 µM | 260 to 262 °C | > 40 µM | > 40 µM | > 40 µM | > 40 µM | –
10 | COc1cccc2c(=O)n(-c3ccc(S(=O)(=O)NCC(=O)Nc4ccc([N+](=O)[O-])cc4C)cc3)c(SCC(=O)Nc3ccc([N+](=O)[O-])cc3C)nc12 [Compound 4l, 2-(4-(8-Methoxy-2-((2-((2-methyl-4-nitrophenyl)amino)-2-oxoethyl)thio)-4-oxoquinazolin-3(4H)-yl)phenylsulfonamido)-N-(2-methyl-4-nitrophenyl)acetamide] | > 40 µM | 127 to 129 °C | > 40 µM | > 40 µM | > 40 µM | > 40 µM | –
11 | COc1cccc2c(=O)n(-c3ccc(S(=O)(=O)NCC(=O)Nc4c(C)cccc4[N+](=O)[O-])cc3)c(SCC(=O)Nc3c(C)cccc3[N+](=O)[O-])nc12 [Compound 4m, 2-(4-(8-Methoxy-2-((2-((2-methyl-6-nitrophenyl)amino)-2-oxoethyl)thio)-4-oxoquinazolin-3(4H)-yl)phenylsulfonamido)-N-(2-methyl-6-nitrophenyl)acetamide] | > 40 µM | 272 to 274 °C | > 40 µM | > 40 µM | > 40 µM | > 40 µM | –
12 | COc1cccc2c1C(=O)c1c(O)c3c(c(O)c1C2=O)C[C@@](O)(C(=O)CO)C[C@@H]3O[C@H]1C[C@H](N)[C@H](O)[C@H](C)O1 [Doxorubicin, reference compound] | 1.1 ± 0.01 µM | – | 1.4 ± 0.3 µM | 1.5 ± 0.05 µM | – | 3.7 ± 0.2 µM | –
